Source: PubChem BioAssay AID179 (DTP/NCI, 2004)
Calls of active or inactive are those of the source.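 Rule for the calls: active = compounds giving half or more protection of infected cells from virus-caused growth loss, again on retest; inactive = the rest.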 Where a SMILES comes first, the peptide text is derived from it.

Test system: CEM cells HIV-1 protection, formazan growth assay
Assay: NCI AIDS Antiviral Assay
Settings: for IC50: measured here: growth of uninfected CEM cells
How it was run: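 Human CEM cells, uninfected and HIV-1-infected, received five drug concentrations, and growth was read by soluble formazan assay. Compounds giving at least 50% protection were retested; reproducible 100% protection defined confirmed active.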

SMILES	EC50 [µM]	IC50 [µM]	outcome
CCN(CC)CCCC(C)Nc1cc(-c2ccccc2)nc2cc(Cl)ccc12 (stereo not given)	> 427	2.45	
O=C(O)CCCCCSCCCCCCSCCCCCC(=O)O	> 50.1	> 50.1	
CCOP(=O)(OCC)/C(C#N)=C/c1ccc(Oc2ccccc2)cc1	> 20.4	> 20.4	
CCOC(=O)C(=CNC(=S)c1cccnc1)C(=O)OCC	> 200	17.8	
C/C=C1/CC(C(=O)OC)N(C(=O)OCc2ccccc2)C1=S (stereo not given)	> 200	> 200	
Cc1ccc(/C=C2/N=C(N/N=C\c3ccccc3)NC2=O)cc1	> 200	129	
COC(=O)C1Cc2cc3c(cc2C1=O)CCCC3 (stereo not given)	> 1000	66.1	
Cc1c(O)c(OC2OC(CO)C(O)C(O)C2O)cc2c1CC[C@@H]1C2(C)C(=O)C[C@]2(C)[C@@H]([C@@](C)(O)C(=O)CCC(C)(C)O)[C@H](O)C[C@@]12C (stereo not given in full)	> 200	> 200	
COc1ccc2nc3ccccc3c(NCCCN(CCCl)CCCl)c2c1			inactive
Cn1c2c(c3ccccc31)CC(=O)N1CCCC(C1)CC21OCCO1 (stereo not given)	> 200	> 200	
Nc1ccc(Nc2cc(=O)[nH]c(=O)[nH]2)cc1Cl	> 200	> 200	
O=C1CCCC2COc3ccc(O)c1c32 (stereo not given)			inactive
COC(=O)N/N=C(\C)C(CN(C)C)C(c1ccccc1)c1c(O)c2ccccc2oc1=O (stereo not given)	> 28.8	> 28.8	
CC(C)=CCC/C(C)=C/Cc1cc(O)c(Br)cc1O	> 145	24	
CCOC(=O)c1nc2ccccc2nc1Nc1ccc(Cl)c(Cl)c1	151	> 200	
CC(=O)O/N=C/c1ncccc1OC(C)=O	> 1120	> 1120	
COc1ccc2c(c1)C(=O)C13CC(C(=O)OCc4ccccc4)C(OC(C)=O)(CCC21)C3 (stereo not given)	> 72.4	> 72.4	
Cc1c2c(n3c(nc4ccccc43)c1C#N)NCC2	> 200	> 200	
COc1ccc(C2SCC(=O)N2NC(=O)c2ccc(NC(C)=O)cc2)cc1 (stereo not given)	> 35.5	> 35.5	
CCCCS(=O)(=O)O	> 200	> 200	
CC(C)CC(NC(=O)C(Cc1ccc(O)cc1)NC(=O)C1CCCN1C(=O)C(NC(=O)C(CO)NC(=O)C(CCCCN)NC(=O)C(NC(=O)C(N)CCC(=O)O)C(C)C)C(C)O)C(=O)NC(CO)C(=O)NC(CCCCN)C(=O)O (stereo not given) (H-EVKSTPYLSK-OH; configuration not given here)			inactive

SMILES	EC50 [µM]	IC50 [µM]	outcome
CC(=O)Nc1ccc2oc(=O)ccc2c1	> 1230	562	
CCC1CC2CC3c4[nH]c5ccc(OC)cc5c4CCN(C2)C13 (stereo not given)			inactive
Cc1cc(C)nc(NC(=S)Nc2ccc(Cl)cc2)c1	> 100	> 100	
CC(C)CCCC(C)[C@H]1CCC2C3CCC4C[C@@H](CCCC(c5cc(Cl)c(O)c(C(=O)O)c5)c5cc(Cl)c(O)c(C(=O)O)c5)CC[C@]4(C)C3CC[C@@]21C (stereo not given in full)	8.91	> 200	
COc1cc2c(cc1OCCCN1C(=O)c3cccc4cccc(c34)C1=O)N=C[C@@H]1CCCN1C2=O	5.13	13.2	
[Au+].c1c[n-]cn1.c1ccc([PH+](c2ccccc2)c2ccccc2)cc1	> 13.8	6.31	
CCCCCCCCCCCCCCCC(=O)OCCOCCOCCOCCOCCOC(=O)CCCCCCCCCCCCCCC			inactive
CC(=O)NC1C(OCc2ccccc2)OC(CO)C(O)C1OCC(=O)N1CCCC1C(=O)NC(CCC(=O)NCCCCCNc1c2ccccc2nc2cccc([N+](=O)[O-])c12)C(N)=O (stereo not given)	> 200	0.209	
O=C1Cn2c(c3ccccc3nc2=O)N1	> 10	> 10	
C=C1[C@H]2C[C@H]3[C@@H]4N5C[C@]6(C)CCCC47C6[C@@]5(O)CC3([C@@H]1O)[C@H]7[C@H]2O			inactive
CC(C)(C)N/N=C(\Cc1occc(=O)c1O)C(=O)Nc1ccc([N+](=O)[O-])cc1[N+](=O)[O-]	> 158	> 158	
Nc1nc([O-])c([I+]c2ccccc2)c(=O)[nH]1	> 200	> 200	
CCCCNC1=C(C(=O)OCC)/C(=N/NC(=O)c2ccccc2O)CO1	> 83.2	13.2	
CC(=O)Nc1ccc(/C=C/C(=O)c2sc(C(N)=S)nc2C)cc1	> 75.9	> 75.9	
CCCCCCCCCCOCC(COCCOCC(COCCCCCCCCCC)OS(=O)(=O)O)OS(=O)(=O)O (stereo not given)	> 186	42.7	
CCCCOP(=O)(OCCCC)C(NS(=O)(=O)c1ccccc1)(C(=O)OCC)C(F)(F)F (stereo not given)	> 200	19.1	
COc1ccc(-c2ccccc2)cc1S	> 200	> 200	
O=C(CCn1[nH]c(=O)c(Cl)c(Cl)c1=O)NOCCCc1ccccc1	> 646	> 646	
CC1=C(C(=O)Nc2ccc([N+](=O)[O-])cc2)C(c2ccccc2F)C(C(=O)Nc2ccc([N+](=O)[O-])cc2)=C(C)N1	> 13.5	> 13.5	
O=c1oc2ccccc2c(O)c1C(c1ccc2ccccc2c1)c1c(O)c2ccccc2oc1=O	> 200	38.9	
CN(C)CC1CCCC(CN(C)C)C1O (stereo not given)	> 871	> 871	

SMILES	EC50 [µM]	IC50 [µM]	outcome
Sc1ccc(Nc2c3ccccc3nc3ccccc23)cc1	> 200	14.5	
C=CCCC[P+](c1ccccc1)(c1ccccc1)c1ccccc1	> 200	1.15	
C[C@H]1C[C@H]2[C@@H]3CCC4=CC(=O)C=C[C@]4(C)[C@@]3(F)[C@@H](O)C[C@]2(C)[C@H]1O			inactive
CCCCCCCCOCC(O)COC(C)C (stereo not given)	> 200	115	
CCOC(=O)/C(O)=C1\C(=O)N(C)C(=O)C1c1cccc(OC)c1 (stereo not given)			inactive
c1cc2c(c(NC3=NCCO3)c1)CCC2	> 200	112	
N#CC1=C(N)OC(c2ccc([N+](=O)[O-])cc2)C1(C#N)C#N (stereo not given)	> 200	10	
COc1ccc(C[C@@H]2CN(C(=O)c3ccccc3)[C@H](Cc3ccc(O)cc3)CN2C(=O)c2ccccc2)cc1Br	> 200	126	
CC1(C)OOC(O)C=C1c1ccccc1 (stereo not given)	> 126	> 126	
O=C(c1ccc(O)c([N+](=O)[O-])c1)c1ccc(O)c([N+](=O)[O-])c1	> 200	45.7	
CC1CCC2C(C)C(=O)OC3OC4(C)CCC1C32OO4 (stereo not given)	> 457	288	
Cc1ccsc1/C=N/Nc1cnccn1	> 200	75.9	
O=C(Nn1c(-c2ccccc2)nc2ccccc2c1=O)c1ccc(CS)cc1			inactive
Cc1cc(-c2ccc(N=Nc3c(S(=O)(=O)O)cc4cc(S(=O)(=O)O)cc(N)c4c3O)c(C)c2)ccc1N=Nc1ccc2c(S(=O)(=O)O)ccc(N)c2c1O			inactive
CC(C)CC(=O)[O-].N.N.N.N.N.[Co+3].[O-][Cl+3]([O-])([O-])[O-]			inactive
C/C(O)=C(/C=N/C(=S)Nc1ccccc1)C(=O)Nc1ccccc1C	> 200	195	
C1=NCCNCCNCCN=Cc2ccc(cc2)OCc2cccc(n2)COc2ccc1cc2	> 50.1	> 50.1	
Cc1cc(OP2(=O)Nc3ccccc3-c3ccccc3N2)ccc1Cl	> 70.8	1.26	
CCOC(=O)c1cc(-c2ccc(OC)cc2)c([N+](=O)[O-])[nH]1	> 200	25.7	
CCC[CH2][Ge]([CH2]CCC)([CH2]CCC)[O]C(=O)C(O)c1ccccc1 (stereo not given)	4.9	12	
Cc1ccc(C(=O)Oc2ccc(/C=C3\CCC/C(=C\c4ccc(OC(=O)c5ccc(C)cc5)cc4)C3=O)cc2)cc1	> 100	> 100	

SMILES	EC50 [µM]	IC50 [µM]	outcome
O=C1/C(=C/c2ccccc2)CN(C(=O)C(Cl)(Cl)Cl)C/C1=C\c1ccccc1			inactive
C=CCCCN1C(=O)CCCC1=O			inactive
C=CCNC1=C2C[C@@H](C)C[C@@H](OC)[C@@H](OC(=O)CCCN)[C@H](C)/C=C(\C)[C@@H](OC(N)=O)[C@H](OC)/C=C\C=C(/C)C(=O)NC(=CC1=O)C2=O	> 200	5.5	
COC1/C=C\OC2(C)Oc3c(C)c(O)c4c(O)c(c(/C=N\OCCO)c(O)c4c3C2=O)NC(=O)/C(C)=C\C=C/C(C)C(O)C(C)C(O)C(C)C(OC(C)=O)C1C (stereo not given)	16.2	126	
COCn1cc(C2=C(C)C(=O)C(C)=C(C)C2=O)cn1	> 200	6.03	
COc1ccccc1C1(c2c(OC)c(=O)c2=O)SCCCS1	> 200	> 200	
Cc1cc(N(CCC#N)CCC#N)ccc1/C(Sc1ccccc1)=C(\NC(=O)/C=C/c1ccccc1)C(=O)Sc1ccccc1	> 21.4	12.6	
N#Cc1c(-c2ccc([N+](=O)[O-])cc2)c(C#N)c(=O)n(NS(=O)(=O)c2ccccc2)c1O	> 200	> 200	
COc1cc2c(cc1O)CC[C@@H]1C2CC[C@@]2(C)C1CC[C@@H]2O (stereo not given in full)	> 2	0.331	
O=c1[nH]c(C2CCCCC2)nc2ccc(Cl)cc12			inactive
CC(C)(C)N=C1CC(C)(C)c2ccccc2C(=Nc2ccccc2)S1			inactive
NC(=S)N/N=C1\CCc2ccccc2C1	> 575	15.8	
CC1CC/C(=C\c2ccc(N(C)C)cc2)C(=O)/C1=C/c1ccc(N(C)C)cc1 (stereo not given)	> 100	60.3	
COc1ccc(/C=C2\C(=O)N(C)C(=O)c3cc(OC)c(OC)cc32)cc1OC	> 100	51.3	
Clc1ccc(-c2nn3c(CCCCCCCCc4nnc5sc(-c6ccc(Cl)cc6)nn45)nnc3s2)cc1	> 200	19.1	
N#Cc1cccc2c1Nc1ccccc1S2	> 23.4	> 23.4	
OCCCCOC(c1ccccc1)(c1ccccc1)c1ccccc1	> 15.8	> 15.8	
N=C(N)SCCNC[C@@H](O)[C@@H](O)CNCCSC(=N)N	> 537	437	
Clc1ccc2c(Cl)nc(-c3ccccc3)nc2c1			inactive
Cc1cccc(NC(=O)CC(=O)N2N=C(N(CCC#N)c3ccccc3Cl)CC2c2ccccc2)c1 (stereo not given)	> 186	> 186	
